“And” between values parts separate entries of the source, which are not always exact repeats. Identical values can stand only once. “Also recorded” adds a separate entry of the source. Like-named read-outs stand apart in the source and are kept apart here.
What was measured:
A431 cells [1] = test system: A431 cells
Description: A431 cells were seeded at a density of 1×10^5 cells/ml in 96 well plates and incubated under 2% O2 for 48 h prior to treatment. After 24 h, the culture medium was replaced and the cells were placed back into the incubators under 2% O2. Following this incubation period, the culture medium was then removed and the plates were washed with PBS. The cells were then treated with 1 mM MAL in the absence or presence of one of the compounds of interest and then incubated again at 2% O2 for 3 h. For experiments carried out with SRHDs, this treatment step was carried out for 5 h at 2% O2. After treatment, the cells were washed with PBS, the culture medium was replaced and the cells were placed back under 2% O2 for 3 h. Following this final incubation, cell death was analysed using the resazurin viability assay.
Resazurin (7-hydroxy-3H-phenoxazin-3-one 0-oxide) is a weakly fluorescent blue dye used primarily in oxidation-reduction cell viability assays. Irreversible NADH-dependent reduction by the mitochondria in mammalian cells leads to the production of resorufin, a highly fluorescent product with excitation at 571 nm, emission at 585 nm.
A431 cells were seeded into 96 well plates at a density of 1.5*10^6 cells per ml (200 μl per well, 3*10^5 cells) and incubated for 24 h to adhere. Following incubation, the cells were washed and treated with the compound of interest for the relevant time, and then washed with PBS. […] After a 2 h incubation, the fluorescence of each well was measured (excitation: 571 nm, emission: 585 nm) using a fluorescence plate reader. Data from these experiments was plotted as a percentage of cell viability compared to untreated control cells.

A431 cells [2] = assay: Photodynamic cell killing in the presence of inhibitors of the thioredoxin antioxidant system or nitroxides (annexin V-FITC/propidium iodide flow cytometry); format: cell-based, human; conditions: for cell death: 3 h, irradiation; for potentiating effect on MAL photodynamic cell killing: summary of Examples 2A, 3A
Description: After this treatment, the cells were irradiated for 5 min (630 nm, 25 J/cm^2), then washed with PBS and the culture medium was replaced, after which the cells were placed back under 2% O2 and incubated for a further 3 h. Following this final incubation, cell death was analysed by annexin V-FITC and propidium iodide staining in conjunction with flow cytometry.
Cell death analysis by flow cytometry was carried out using the annexin V-FITC/propidium iodide protocol. This protocol allows a quantitative assessment of cell death, particularly specific modes of death, and involves staining the cells with fluorescein isothiocyanate-conjugated annexin A5 (annexin V-FITC) and propidium iodide (PI). Positive staining with annexin V-FITC alone indicates an apoptotic cell; positive staining with PI alone indicates a necrotic cell and dual staining of both annexin V and PI indicates a “late apoptotic” cell.
From each flask being assessed, the old medium was removed and placed into a corresponding individual 15 ml Falcon tube in order to collect any cells that may have detached from the surface. The flask was washed once with 1 ml PBS; also deposited in the Falcon tubes. Trypsin (500 μl) was added to each flask and the flasks were returned to the incubator with their caps loosened. Cell detachment was monitored using an inverted light microscope, until 50% of the cells were detached. The flasks were then lightly tapped to detach the remainder of the cells. Medium (2 ml) was added to each flask in order to neutralise the trypsin present before being removed and dispensed into the Falcon tubes. One more wash with PBS was carried out in order to ensure any cells left in the flasks were collected. The Falcon tubes were then centrifuged at 490 g for 3 min, forming a pellet at the bottom of the tube. The supernatant was discarded, and the cells were re-suspended in 5 ml of PBS, in order to wash them, before being centrifuged again at 490 g for 3 min. The wash stage was carried out once more before re-suspending the cell pellet in 95 μl of ice cold calcium (Ca^2+) buffer (50 mM HEPES, 700 mM NaCl, 12.5 mM CaCl2, pH 7.4) and adding 5 μl 12.5 μg/ml of annexin V-FITC (final concentration, 1.25 μg/ml), under reduced light conditions to prevent bleaching of the FITC. The Falcon tubes were placed on ice and in the dark for 15 min to allow annexin V staining. After 15 min, 860 μl of Ca^2+ buffer (10 mM Hepes adjusted to pH 7.4, 140 mM NaCl and 2.5 mM CaCl2) was added, followed by 40 μl of 1 mg/ml PI in water (final concentration, 0.04 mg/ml) to give a final volume of 1 ml. The samples were then ready to be assessed by flow cytometry.
The following flow cytometry process of sample detection was used. When using annexin V-FITC and PI, the detectors being used were FL1 (λmax=520 nm) and FL3 (λmax=670 nm), respectively, each with their own logarithmic histogram generated by the software. The intensity of the fluorescence detected is measured on a logarithmic scale on the x-axis and the y-axis represents the number of cells detected at a given fluorescence intensity. A plot of FL1/FL3 produces a 4-quadrant graph, where unstained and untreated cells are located in the bottom left quadrant, representing any cells found in the 1st decade of the single plot logarithmic histograms. Single staining with annexin V-FITC and PI are located in the bottom right and top left quadrant, respectively, and dual staining is located in the top right quadrant. These quadrants represent any cells detected above the 1st decade of the logarithmic histograms.

A431 cells [3] = assay: Mitochondrial reactive oxygen species generation during photodynamic irradiation, MitoSOX flow cytometry; format: cell-based, human; conditions: 3 hours, irradiated
Description: A431 cells were treated concurrently with AP39-C10 (10, 100 or 1000 nM) for 5 hours, MAL (1 mM) for 3 hours and MitoSOX (2.5 μM) for 1 hour, after which they were irradiated for 5 min (630 nm, 25 J/cm^2) and MitoSOX (mito-2-OH-E^+) fluorescence, indicative of mitochondrial oxidant production, was immediately analysed by flow cytometry. Results are set out in FIG. 23.
Mitochondria-targeted dihydroethidium (i.e. MitoSOX) was used to assess the production of mitochondrial reactive oxygen species (ROS) by PpIX photochemical reactions and to determine the effects of AP39-C10 on this process. All of the results are represented as a percentage of the untreated controls (100.0±8.5%). The fluorescence of the photoirradiated cells, which had been pre-treated with MAL, was 193.7±7.3% (p<0.001 c.f. untreated controls).

A431 cells [4] = assay: MAL-induced PpIX accumulation, fluorescence plate reader; format: cell-based, human; conditions: for PpIX accumulation, percentage of the MAL alone treatment: FIG. 38; for effect on PpIX fluorescence: 0.01 mM + 1 mM MAL; for increase in PpIX fluorescence: 1 mM + 1 mM MAL
[5] = 1 mM MAL + co-treatment 1 mM (1000 μM)
[6] = 1 mM MAL + nitroxide 1 mM (MitoTEMPO 50 μM) + irradiation, FIG. 13, 34
[7] = MAL 1 mM + co-treatment 1 mM (1000 μM)

CC1(C)CCCC(C)(C)N1[O] [TEMPO, 2,2,6,6-tetramethyl-1-piperidinyloxy]
cell viability, percentage of untreated control (A431 cells [1]; 0.25 mM with 1 mM MAL, 3 hours): 97.8±3.4% | cell viability, percentage of untreated control (A431 cells [1]; 0.5 mM with 1 mM MAL, 3 hours): 97.5±1.7% | cell viability, percentage of untreated control (A431 cells [1]; 1 mM with 1 mM MAL, 3 hours): 98.6±6.8% | cell viability, percentage of untreated control (A431 cells [1]; 2 mM with 1 mM MAL, 3 hours): 97.4±6.2% | cell viability, percentage of untreated control (A431 cells [1]; 5 mM with 1 mM MAL, 3 hours): 92.9±6.6% | cell viability, percentage of untreated control (A431 cells [1]; 10 mM with 1 mM MAL, 3 hours): 79.9±8.5% | cell viability, percentage of untreated control (A431 cells [1]; 10 mM, 24 hours): 64.9±0.1% | cell viability, percentage of untreated control (A431 cells [1]; 50 mM, 24 hours): 8.5±0.2% | cell death (A431 cells [2]; [5]): 52.0±8.3% and 46.3±3.6% | modes of cell death (A431 cells [2]; [6]): an increase in apoptotic and late apoptotic cell death; also recorded: a further increase in late apoptosis and necrosis with little effect on apoptotic cell death | potentiating effect on MAL photodynamic cell killing (A431 cells [2]): more robust potentiating effect | MitoSOX fluorescence, percentage of untreated cells (A431 cells [3]; [7]): 418.8±6.3% | PpIX accumulation, percentage of the MAL alone treatment (A431 cells [4]; 10 μM + MAL 1 mM, 3 hours): 100.3±3.8% | effect on PpIX fluorescence (A431 cells [4]; 3 h): increased PpIX fluorescence slightly, but this was not statistically significant | increase in PpIX accumulation compared to MAL alone (A431 cells [4]; 50 μM + MAL 1 mM, 3 hours, FIG. 35): 0.0±4.9% | PpIX accumulation, percentage of the MAL alone treatment (A431 cells [4]; 100 μM + MAL 1 mM, 3 hours): 127.0±3.3% | increase in PpIX fluorescence (A431 cells [4]; 3 h): ~2 fold | PpIX accumulation, percentage of the MAL alone treatment (A431 cells [4]; 1000 μM + MAL 1 mM, 3 hours): 159.2±4.1% | peak response, increase in PpIX accumulation compared to MAL alone (A431 cells [4]; peak at TEMPO 5 mM, MitoTEMPO 100 μM, CP94 100 μM, MAL 1 mM, 3 hours): 138.1±10.5%

CC1(C)CC(O)CC(C)(C)N1[O] [TEMPOL, 4-hydroxy-2,2,6,6-tetra methylpiperidine 1-oxyl]
cell viability, percentage of untreated control (A431 cells [1]; 0.25 mM with 1 mM MAL, 3 hours): 99.3±4.4% | cell viability, percentage of untreated control (A431 cells [1]; 0.5 mM with 1 mM MAL, 3 hours): 102.0±3.6% | cell viability, percentage of untreated control (A431 cells [1]; 1 mM with 1 mM MAL, 3 hours): 99.8±2.9% | cell viability, percentage of untreated control (A431 cells [1]; 2 mM with 1 mM MAL, 3 hours): 104.2±3.3% | cell viability, percentage of untreated control (A431 cells [1]; 5 mM with 1 mM MAL, 3 hours): 116.2±2.7% | cell viability, percentage of untreated control (A431 cells [1]; 10 mM with 1 mM MAL, 3 hours): 77.8±4.7% | modes of cell death (A431 cells [2]; 1 mM MAL + TEMPOL, dependent on concentration + irradiation, FIG. 37): an increase in apoptosis and late apoptosis, with smaller increases in necrosis also observed | cell death (A431 cells [2]; 1 mM MAL + co-treatment 10 μM): 40.5±4.1% | cell death (A431 cells [2]; 1 mM MAL + co-treatment 100 μM): 48.5±7.4% | cell death (A431 cells [2]; [5]): 50.8±6.8% and 69.3±3.1% | modes of cell death (A431 cells [2]; [6]): an increase in late apoptotic and necrotic cell death; also recorded: a further increase in late apoptosis and necrosis with little effect on apoptotic cell death | potentiating effect on MAL photodynamic cell killing (A431 cells [2]): more robust potentiating effect | MitoSOX fluorescence, percentage of untreated cells (A431 cells [3]; MAL 1 mM + co-treatment 10 μM): 99.4±5.44% | MitoSOX fluorescence, percentage of untreated cells (A431 cells [3]; MAL 1 mM + co-treatment 100 μM): 226.5±19.4% | MitoSOX fluorescence, percentage of untreated cells (A431 cells [3]; [7]): 253.3±6.3% and 316.8±1.6% | PpIX accumulation, percentage of the MAL alone treatment (A431 cells [4]; 10 μM + MAL 1 mM, 3 hours): 109.0±2.7% | effect on PpIX fluorescence (A431 cells [4]; 3 h): increased PpIX fluorescence slightly, but this was not statistically significant | PpIX accumulation, percentage of the MAL alone treatment (A431 cells [4]; 100 μM + MAL 1 mM, 3 hours): 141.2±4.2% | effect on PpIX accumulation (A431 cells [4]; 0.1 mM and 1 mM + 1 mM MAL, 3 h): significantly increased PpIX accumulation further | increase in PpIX fluorescence (A431 cells [4]; 3 h): ~2 fold | PpIX accumulation, percentage of the MAL alone treatment (A431 cells [4]; 1000 μM + MAL 1 mM, 3 hours): 209.2±5.1%

From patent US10149907B2, “Combinations of a photosensitizer with a hydrogen sulfide donor, thioredoxin inhibitor or nitroxide for use in photodynamic therapy” (UNIVERSITY OF EXETER, priority 2014, dated 2018)
